Patent US5607926A, “Cephalosporin antibiotics” (Microcide Pharmaceuticals, Inc., priority 1995, dated 1997)
Values after ≈ are worked out from the molar mass of the structure shown. Structures can show the parent of a compound that is named as a salt. Where two headings read alike, the source gives them in different places.

What was measured:
[1] = test system: S. aureus ATCC 29213; assay: In vitro antibacterial evaluation, MIC by agar dilution, S. aureus ATCC 29213; assay type: cell-based; conditions: Staphylococcus aureus, ATCC29213; S. aureus ATCC 29213; read-out: MIC
How it was run: (§1)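 Growth inhibition on Mueller-Hinton agar plates defined the MIC, the lowest compound level stopping visible growth after 16-20 hours at 35°-36° C. Compound was incorporated at two-fold steps from 128 μg/mL to ≤0.25 μg/mL, each tested twice, with about 10^4 cfu spotted per isolate.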

[2] = test system: S. aureus 76 (Meth^R)(lac^+); assay: In vitro antibacterial evaluation, MIC by agar dilution, S. aureus 76; assay type: cell-based; conditions: Staphylococcus aureus, read-out: MIC
How it was run: as §1

[3] = test system: S. aureus Col8A (Meth^S)(lac^-); assay: In vitro antibacterial evaluation, MIC by agar dilution, S. aureus Col8A; assay type: cell-based; conditions: Staphylococcus aureus
How it was run: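 Agar dilution per NCCLS (1991): two-fold dilutions from 128 μg/mL down to ≤0.25 μg/mL in Mueller-Hinton agar, each level in duplicate. Spots of about 10^4 cfu of log-phase culture; 16-20 h at 35°-36° C. MIC in μg/ml is the lowest concentration inhibiting growth.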

[4] = test system: S. haemolyticus (Meth^R); assay: In vitro antibacterial evaluation, MIC by agar dilution, S. haemolyticus; assay type: cell-based; conditions: Staphylococcus haemolyticus, read-out: MIC
How it was run: as §1

[5] = test system: E. faecium ATCC 35667; assay: In vitro antibacterial evaluation, MIC by agar dilution, E. faecium ATCC 35667; assay type: cell-based; conditions: Enterococcus faecium, ATCC35667, read-out: MIC
How it was run: as §1

[6] = test system: E. faecalis ATCC 29212; assay: In vitro antibacterial evaluation, MIC by agar dilution, E. faecalis ATCC 29212; assay type: cell-based; conditions: Enterococcus faecalis, ATCC29212; E. faecalis ATCC 29212; read-out: MIC
How it was run: as §1

[7] = test system: E. coli ATCC 25922; assay: In vitro antibacterial evaluation, MIC by agar dilution, E. coli ATCC 25922; assay type: cell-based; conditions: Escherichia coli, ATCC25922, read-out: MIC
How it was run: as §1

[8] = test system: P. aeruginosa ATCC 27853; assay: In vitro antibacterial evaluation, MIC by agar dilution, P. aeruginosa ATCC 27853; assay type: cell-based; conditions: Pseudomonas aeruginosa, ATCC27853, read-out: MIC
How it was run: as §1

[9] = test system: methicillinsusceptible S. aureus strain ATCC 13709; assay: In vivo antibacterial evaluation, murine model for lethal bacteremic peritonitis; parameters: species or system S. aureus in female Swiss-Webster mice; conditions: Staphylococcus aureus, ATCC13709, sc, 72 h, two equal SC doses at challenge and 2 hours later, mice, probit
Protocol: Groups of 5 female Swiss-Webster mice (Simonsen, Gilroy, Calif.) each are challenged by the intraperitoneal (IP) route with ten-fold increments of a bacterial inoculum. This permits calculation of the mean lethal dose (LD50) and the LD100. For preliminary evaluation of a new antibiotic, mice are challenged IP with an LD100 titer of bacteria. In two equal doses administered at the time of bacterial challenge and 2 hours later, groups of 10 mice each are treated subcutaneously with two-fold increments of the test drug and an antibiotic of known efficacy in mice and humans (i.e., positive control). Mice are observed for 72 h. Those alive at 72 h are considered long term survivors. The total drug dose in mg/kg that protects 50% of mice in a group from death is termed the mean protective dose (PD50). PD50 s are similarly determined for several pathogens. The quantitative endpoints for the new drug are then compared with those obtained with reference antibiotics.
Six ten-fold dilutions of inoculum suspended in 0.5 mL of sterilized 7% hog gastric mucin (Sigma) are injected IP in groups of 5 mice each. A control group of 5 mice receive mucin alone. Mice are observed for 72 h. Those alive at 72 h are considered long term survivors. The mean lethal dose (LD50) and 100% lethal dose (LD100) are determined by the probit test.
For antibiotic efficacy studies, mice are challenged IP with bacterial titers that will afford an LD100 for the test strain. In two equal doses administered at the time of bacterial challenge and 2 hours later, groups of 10 mice each are treated by the subcutaneous route (SC) with twofold increments of the test antibiotic; another group is treated similarly with a reference antibiotic of known efficacy in animals and man. Drug doses can range from 0.01 to 512 mg/kg. If the drug is poorly soluble, Tween 20 or propylene glycol will be employed to solubilize the drug. Animals are observed for 72 h. The 50% protective dose (PD50) is calculated in mg/kg by the probit method. The PD50 is the same as the 50% effective dose (ED50) and the 50% curative dose (CD50). Samples of blood from the hearts of all animals that die and from half the mice that survive are cultured on brain-heart infusion agar. Animals that received a protective dosage of the test drug will be alive at 72 h, although they may appear moderately ill to very ill during the observation period. […] Most of these mice will die within 6 to 48 h. Those alive at 72 h will be considered long term survivors.
(§2) data reported for challenge with methicillinsusceptible S. aureus strain

[10] = test system: methicillinsusceptible S. aureus strain ATCC 13709; assay: Challenge strain MIC; assay type: cell-based; conditions: Staphylococcus aureus
Protocol: The compounds of the invention were evaluated against several β-lactamresistant bacteria strains by determining the minimum inhibitory concentration (MIC, μg/ml) of each compound with respect to each strain. The MIC, the lowest concentration of antibiotic which inhibits growth of the test organism, was determined by the agar dilution method.
To determine the MIC for bacterial isolates, the test compound was incorporated in a series of two-fold dilutions into liquified Mueller-Hinton agar. Upon solidification, a number of different bacterial strains were spot inoculated with a replicating device onto the agar surface. […] The procedures used in these studies have been standardized by the National Committee for Clinical Laboratory Standards (NCCLS), as per the NCCLS publication entitled METHODS FOR DILUTION ANTIMICROBIAL SUSCEPTIBILITY TESTS (1991), which is incorporated herein by reference.
Aliquots of antimicrobial agents were prepared in phosphate buffered saline (PBS) at pH 7.2. Tween 20 or DMSO was used as a solubilizing vehicle as needed. Standard methods of vortexing, sonicating and gentle heat were used to facilitate solubilizing the test agent. Typically, the concentration of the stock solution was 10× that of the highest drug concentration tested. A 1.28 mg/mL stock solution was used with a subsequent highest working concentration of 128 μg/mL. Serial two-fold dilutions were done through ≤0.25 μg/mL. Each drug level was tested in duplicate. Two-fold drug dilutions were done in sterile 50 mL tubes with a final drug volume of 5 mL. Upon the addition of 45 mL of molten agar, a 10-fold dilution resulted. Two, 25 mL. plates were then poured into 15×150 mm square Petri plates with grids and allowed to harden.
A control plate with a reference drug, either cefotaxime, vancomycin or imipenem, was used as the positive growth control. Stock concentrations of reference antibiotics were prepared and frozen at -80° C. Upon preparation, the control plates were sealed and stored in the refrigerator for up to 1 week prior to use; however, imipenem control plates had to be prepared just prior to use. All test plates were used within 24 hours of preparation.
Satisfactory results were obtained where the inoculum contained about 10^4 colony forming units (cfu) ±0.5 logs. Starting with pure cultures of the test isolates on agar plates, a few isolated colonies were transferred to a tube of nutrient broth and allowed to grow 4-6 hours at 35°-36° C. to reach log-phase growth. Dropwise addition of the broth culture to PBS was done to match a 0.5 McFarland turbidity standard equal to 10^8 cfu/mL. This was further diluted ten-fold in PBS to reach a working inoculum concentration of 10^7 cfu/mL. When 1 μL of the working inoculum was applied to the agar surface a concentration of about 10^4 cfu per spot was obtained.
Disposable sterile 1 μL loops were used to inoculate test plates, with each isolate in a designated grid on the agar plate. An alternate method of inoculation involved the use of a replica plater, a device with 48 steel pins allowing the simultaneous inoculation of multiple isolates. After the spots had dried, the plates were incubated at 35°-36° C. for 16-20 hours. Endpoints were assessed as the minimum inhibitory concentration (MIC) of antimicrobial agent.
as §2

[11] = ATCC13709, S. aureus ATCC 13709, read-out: Challenge str MIC

| SMILES | MIC [1] [mg/L] | MIC [2] [mg/L] | MIC [3] [mg/L] | MIC [4] [mg/L] | MIC [5] [mg/L] | MIC [6] [mg/L] | MIC [7] [mg/L] | MIC [8] [mg/L] | ED50 ([9]; read-out: ED50) [mg/kg] | MIC [10, 11] [mg/L] | ED50 [9] [mg/kg] | MIC ([10]; ATCC13709, read-out: Challenge str MIC) [mg/L] |
| --- | --- | --- | --- | --- | --- | --- | --- | --- | --- | --- | --- | --- |
| CCC(CC)O/N=C(\C(=O)N[C@@H]1C(=O)N2C(C(=O)O)=C(Sc3ccnn3-c3ccccc3)CS[C@H]12)c1csc(N)n1 [Cmpd 104, (7R)-7-[(Z)-2-(aminothiazol-4-yl)-2-(3-pentyloxyimino)acetamido]-3-(1-N-phenylpyrazol-5-ylthio)-3-cephem-4-carboxylic acid] | 0.5 (≈ 0.815 µM) | 4 (≈ 6.52 µM) | 0.5 (≈ 0.815 µM) | 4 (≈ 6.52 µM) | 4 (≈ 6.52 µM) | 2 (≈ 3.26 µM) | 8 (≈ 13 µM) | 16 (≈ 26.1 µM) | > 10 | 0.5 (≈ 0.815 µM) | – | – |
| O=C(CS/C=C\Cl)N[C@@H]1C(=O)N2C(C(=O)O)=C(Sc3ccnn3-c3ccccc3)CS[C@H]12 [Cmpd 131, (7R)-7-[((Z-2-Chlorovinyl)thioacetyl)amino]-3-(1-N-phenylpyrazol-5-ylthio)-3-cephem-4-carboxylic acid] | – | 4 (≈ 7.86 µM) | – | 32 (≈ 62.9 µM) | 1 (≈ 1.96 µM) | 0.5 (≈ 0.982 µM) | > 32 | > 32 | 1.73 | 0.06 (≈ 0.118 µM) | – | – |
| CN[C@H](CC(C)C)C(=O)N[C@H]1C(=O)N[C@@H](CC(N)=O)C(=O)N[C@H]2C(=O)N[C@H]3C(=O)N[C@H](C(=O)N[C@H](C(=O)O)c4cc(O)cc(O)c4-c4cc3ccc4O)[C@H](O)c3ccc(c(Cl)c3)Oc3cc2cc(c3O[C@@H]2O[C@H](CO)[C@@H](O)[C@H](O)[C@H]2O[C@H]2C[C@](C)(N)[C@H](O)[C@H](C)O2)Oc2ccc(cc2Cl)[C@H]1O [Vancomycin, reference compound] | – | – | – | – | – | – | – | – | – | – | 2.81 | 1 (≈ 0.69 µM) |
| N=C(N)NCCSCC(=O)N[C@@H]1C(=O)N2C(C(=O)O)=C(Sc3ccccc3CSC(=N)N)CS[C@H]12 [Cmpd 137, (7R)-7-[((2-guanidinoethylthio)acetyl)amino]-3-(2-isothiouroniummethylphenylthio)-3-cephem-4-carboxylate, trifluoroacetic acid salt] | – | 4 | 0.06 | 16 | 0.25 | 0.5 | 4 | > 32 | 0.75 | 0.06 | – | – |
| CC(C)N=C(NC(C)C)SCC(=O)N[C@@H]1C(=O)N2C(C(=O)O)=C(Sc3ccccc3CSC(=N)N)CS[C@H]12 [Cmpd 125, (7R)-7-[((N,N'-diisopropylisothiouronium)acetyl)amino]-3-(2-isothiouroniummethylphenylthio)-3-cephem-4-carboxylate, trifluoroacetic acid salt] | 0.5 | 8 | 0.5 | 8 | 2 | 0.25 | > 32 | > 32 | > 10 | – | – | – |
